Positions of bridges follow the written chain, without caps; N, C: chain ends. Non-standard residues stand in square brackets, D forms with d. Residues, ends and D or L forms follow the SMILES beside them. *: point of attachment. Heptanoyl(6-Me) = CC(C)CCCCC(=O)*; Dab = NCC[C@H](N)C(=O)O
Legend:
[1] = rat, in vivo; cited from earlier work
Source text: Following the validation of the present analytical method, the method was applied to estimate the pharmacokinetic profile of colistin in experimental rats. Choosing the animal species to perform the pharmacokinetic study was based on the similarity of colistin pharmacokinetic profile between animal species and humans. […] The species that has the closest pharmacokinetic profile to humans are rats[43]–[45]. […] This is because of a distribution phase that occurs before the decline in the colistin concentration. This finding is in agreement with previous reports[43],[44],[49]. In the present study, we observed that colistin concentration declined rapidly over 180–240 min which is consistent with earlier findings[45],[49]. […] In the present study, the Vd of colistin was 2.45 ± 1.30 L/kg in ...

[2] = in vivo; conditions: male, Sprague Dawley, rat, iv, 15 mg/kg
Method: To 100 μl rat plasma sample, 5 μl of 500 μg/ml IS was added and followed by addition of 400 μl of 50:50 (v/v) methanol-TCA (10%). The samples were vortex-mixed for 1 min, rota-mixed for 10 min at 40 rpm and then centrifuged at 12,000 rpm for 10 min. Following centrifugation, 400 µl of the supernatant was collected and re-extracted with solid phase extraction (SPE) using SPE (Oasis HLB 1 cc, 30 mg) cartridges. First, the cartridges were conditioned with 500 μl of methanol then 500 μl of water. After that, 400 μl of the supernatant was transferred and then washed with 500 μl of water. The tubes were changed and then the samples were eluted with 150 μl of methanol: water: formic acid (80:19:1%, v/v/v) solution. The elution step was repeated twice, and then 250 μl of the solution was transferred to the low volume inserts and 20 μl of this solution was injected into the LC-MS system.
Male Sprague Dawley® (MSD) rats (21 weeks ± 3 days of age) with a body weight of 450–550 g [supplied by the Animal Resource Center (ARC), Health Sciences Center (HSC), Kuwait University] were used to estimate the pharmacokinetic profile of colistin. The animals (n = 8) were housed in 12 h/12 h light/dark cycle. […] All the animals were subjected to left jugular vein cannulation, IV drug administration, and subsequent blood sampling. All surgical procedures were carried out under strict aseptic conditions. In addition, all surgical instruments and materials were autoclaved, all solutions were sterile and the surgical procedure was performed with the aid of surgical microscope (Leica wild M690). Animal body temperatures were maintained around 37.6 °C (rectal) by placing the animals on an electronic heating pad throughout the surgical procedure as well as the post-surgical recovery period. About 350 µl of rat blood sample was collected from each animal. From this sample, 50 µl of blood sample was transferred to a capillary tube, sealed with the sealant clay at one end and centrifuged to calculate the Packed Cell Volume (PCV); i.e., Hematocrit. The remaining rat blood sample (300 µl) was centrifuged at 9000 X g for 10 min and aliquots of 100 µl of plasma sample was collected and stored at −70 °C pending analysis.
Colistin was quantified in the biological samples by the present LC-MS/MS method and then the pharmacokinetic parameters (t1/2, CL, Vd, AUC) were estimated by non-compartmental method employing Kinetica® software, version 5.1 (Thermo Fisher Scientific, Waltham, USA).

Q: Which “CL of the individual components” value [1] does the source give for `CC(C)CCCCC(=O)N[C@@H](CCN)C(=O)N[C@H](C(=O)N[C@@H](CCN)C(=O)N[C@H]1CCNC(=O)[C@H]([C@@H](C)O)NC(=O)[C@H](CCN)NC(=O)[C@H](CCN)NC(=O)[C@H](CC(C)C)NC(=O)[C@@H](CC(C)C)NC(=O)[C@H](CCN)NC1=O)[C@@H](C)O` [Colistin B, colistin B] ({Heptanoyl(6-Me)}-[Dab]T[Dab][Dab][Dab][dL]L[Dab][Dab]T; lactam 4-C) here?
A: 3.05 ± 0.62 mL/min/kg

Q: What about the “t1/2 of the major components” value [1] of the same compound?
A: 1.52 ± 0.342 h

Q: What about the level at 0.5 h [2] of the same compound?
A: 2640 ng/mL
